The text below walks through data of publication PMC12406204 (Journal of Medicinal Chemistry, 2025).

What all share (assay type): cell-based
Holding throughout (set-up): expressed in transfected cells; host or cells: HEK-293T, transient transfection (PEI)

In test [1] the target is T1, CB2R (Homo sapiens, UniProt P34972). The test can be described thus: CB2R β-arrestin recruitment. An excerpt: (§1) Initially we tested their ability to modify CB2R-mediated cAMP accumulation, providing insights into their functional behavior as either agonists or antagonists (Table ). Moreover, the signaling profiles of selected ligands were investigated through their impact on β-arrestin recruitment and Mitogen-Activated Protein Kinase (MAPK) phosphorylation pathway, enabling a more comprehensive evaluation of their intracellular signaling profiles (Table ).
T1 sequence (P34972 whole entry): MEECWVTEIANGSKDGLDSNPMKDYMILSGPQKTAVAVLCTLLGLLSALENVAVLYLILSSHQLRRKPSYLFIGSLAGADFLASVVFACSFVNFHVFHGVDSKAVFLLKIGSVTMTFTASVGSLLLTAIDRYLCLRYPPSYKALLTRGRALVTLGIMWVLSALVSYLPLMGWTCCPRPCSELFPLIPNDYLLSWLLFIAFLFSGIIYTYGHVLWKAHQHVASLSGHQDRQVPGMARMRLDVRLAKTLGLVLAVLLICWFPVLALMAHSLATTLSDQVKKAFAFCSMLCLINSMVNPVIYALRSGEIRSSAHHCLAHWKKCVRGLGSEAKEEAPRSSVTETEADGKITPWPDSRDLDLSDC
(§2) JWH-133, a well-known nonbiased (balanced) agonist, was employed as the reference for comparing the signaling profiles of the tested compounds. An operational model analysis was applied to quantify the functional bias of each CB2R-selective agonist. This involved calculating the bias factor by comparing the signaling pathways: β-arrestin versus cAMP, MAPK versus cAMP, and β-arrestin versus MAPK.

Test [2] concerns the target T1, CB2R. Description: CB2R MAPK phosphorylation.
Text: as §1, §2

Test [3] deals with T1, CB2R. The test can be described thus: CB2R cAMP determination after forskolin stimulation in transfected HEK-293T cells. How it is done:
as §1
HEK-293T cells were grown in Dulbecco’s Modified Eagle’s Medium (DMEM) medium (Gibco, Paisley, Scotland, United Kingdom) supplemented with 2 mM L-glutamine, 100 U/mL penicillin/streptomycin, MEM Non-Essential Amino Acids Solution (1/100) and 5% (v/v) heat inactivated Fetal Bovine Serum (FBS) (Invitrogen, Paisley, Scotland, United Kingdom). Cells were maintained in a humid atmosphere of 5% CO2 at 37 °C. Cells were transiently transfected with the PEI (Polyethylenimine, Sigma, St. Louis, MO, United States) method as previously described and used for functional assays 48 h later.
Signaling experiments have been performed as previously described. Two hours before initiating the experiment, HEK-293T cell-culture medium was replaced by serum-starved DMEM medium. Then, cells were detached, resuspended in growing medium containing […] zardaverine (Tocris, Bristol, U.K.) and placed in 384-well microplates (2500 cells/well). Cells were pretreated (15 min) with cannabinoid compounds (1 nM to 100 μM) -or vehicle- before adding […] forskolin (Tocris, Bristol, U.K.) to induce cAMP accumulation. Readings were performed after 15 min incubation at 25 °C. Homogeneous Time Resolved Fluorescence (HTRF) energy transfer measures were performed using the Lance Ultra cAMP kit (PerkinElmer, Waltham, MA, United States). Fluorescence at 665 nm was analyzed in a PHERA star Flagship microplate reader equipped with an HTRF optical module (BMG Lab Technologies, Offenburg, Germany).

The EC50 is the midpoint of the concentration-response curve. For the compound `CCCC(C)(C)c1ccc2c(c1)OC(C)(C)[C@@H]1CC=C(C)C[C@@H]21` [JWH-133, reference compound], the EC50 at CB2R [1] is 1.34 ± 0.05 nM; on CB2R [2] it was 2.7 ± 0.19 nM; on CB2R [3] (transfected HEK-293T cells, forskolin-stimulated cAMP, read-out: CB2R EC50 AMPc) it was 6.73 ± 0.5 nM. The “CB2R Emax β-arrestin” value on CB2R [1] (normalized to CP 55,940) amounted to 93%. In addition, on CB2R [2] (normalized to CP 55,940), the “CB2R Emax MAPK” value amounted to 98%. On CB2R [3] (normalized to maximal efficacious concentration of CP 55,940), the “CB2R Emax AMPc” value turned out to be 98%.
